Patent US20220242812A1, “SWELL1-LRRC8 COMPLEX MODULATORS” (Washington University, priority 2019, published 2022)
pIC50: −log10 of the molar value.

Key:
[1] = molecular target: T1, R103E mutant SWELL1 (Homo sapiens, UniProt Q8IWT6, R103E); test: ICl,SWELL inhibition in R103E mutant SWELL1 overexpressing HEK-293 cells; assay type: cell-based; conditions: R103E expressing HEK cells, 10 and 7 μM
T1 construct: expressed in transfected cells; host or cells: HEK-293

[2] = tested on: insulin-AKT2-AS160 signaling (pAKT2, pAS160); test: Insulin-stimulated AKT2-AS160 signaling western blot in 3T3-F442A cells
[3] = tested on: insulin secretion; test: Glucose-stimulated insulin secretion in plasma of HFD mice; assay type: in vivo; conditions: 21 weeks HFD
Protocol: (§1) Mice were fasted for 6 h prior to glucose tolerance tests (GTT). Baseline glucose levels at 0 min timepoint (fasting glucose, FG) were measured from blood sample collected from tail snipping using glucometer (Bayer Healthcare LLC). Either 1 g or 0.75 g D-Glucose/kg body weight were injected (i.p.) for lean or HFD mice, respectively and glucose levels were measured at 7, 15, 30, 60, 90 and 120 min timepoints after injection. For insulin tolerance tests (ITTs), the mice were fasted for 4 h. Similar to GTTs, the baseline blood glucose levels were measured at 0 min timepoint and 15, 30, 60, 90 and 120 min timepoints post-injection (i.p.) of insulin (HumulinR, 1 U/kg body weight for lean mice or 1.25 U/kg body weight for HFD mice). […] The collected plasma was then measured for insulin content by using Ultra-Sensitive Mouse Insulin ELISA Kit (Crystal Chem, #90080). All mice and treatment groups were assessed blindly while performing experiments.

[4] = molecular target: VRAC/ICl,SWELL (Homo sapiens, UniProt Q8IWT6); conditions: selective VRAC/ICl,SWELL inhibitor; cited from earlier work
[5] = tested on: human Kv; conditions: cited from earlier work
[6] = molecular target: SWELL1 protein (Mus musculus, UniProt Q80WG5); test: SWELL1 protein expression in adipose tissue of treated T2D mice; assay type: in vivo; design: western blots detecting SWELL1 protein in visceral fat of C57BL/6 mice on high-fat diet; from tissue; host or cells: visceral / inguinal adipose tissue of C57BL/6 HFD and KKAy mice; conditions: 5 mg/kg i.p.
Protocol: (§2) All compounds were dissolved in Kolliphor® EL (Sigma, #C5135).
(SEQ ID NO: 13) (Pacific Antibodies).

[7] = tested on: polygenic T2D KKAy mice; test: Metabolic phenotyping (fasting glucose, GTT, ITT) in polygenic T2D KKAy mice; assay type: in vivo; conditions: polygenic T2D KKAy model, 5 mg/kg i.p. 4 days
Description: All C57BL/6 mice involved in study were purchased from Charles River Labs. Both KK.Cg-Ay/J (KKN) and KK.Cg-Aa/J (KKAa) mice involved in study were gender and age-matched mice obtained from Jackson Labs (Stock No: 002468) and bred up for experiments. The mice were fed ad libitum with either regular chow (RC) or high-fat diet (Research Diets, Inc., 60 kcal % fat) with free access to water and housed in a light-, temperature- and humidity-controlled room. For high-fat diet (HFD) studies, only male mice were used and were started on HFD regimen at the age of 6-9 weeks. For all experiments involving KKN and KKAa mice, both males and females were used at approximately 50/50 ratio. In all experiments involving mice, investigators were kept blinded both during the experiments and subsequent analysis.
as §2, §1

[8] = tested on: non-T2D mice; test: Metabolic phenotyping in non-T2D mice (KKAa control strain, lean chow-fed); assay type: in vivo
Protocol: as §2, §1

[9] = tested on: SWELL1, LRRC8b, LRRC8c, LRRC8d, LRRC8e mRNA; assay type: cell-based; conditions: 3T3-F442A preadipocytes, 10 μM 96 h
Protocol: Data are represented as mean±SEM. Two-tailed unpaired t-test was used where *, ** and *** represents p<0.05, p<0.01 and p<0.001 respectively.
The cDNA synthesis, qRT-PCR reaction and quantification were carried out as described previously (Zhang et al., 2017).

[10] = tested on: delayed rectifier channels; conditions: cited from earlier work
[11] = molecular target: hERG (Homo sapiens, UniProt Q12809); conditions: cited from earlier work
[12] = tested on: cytochrome p450 isoenzyme; test: Cytochrome P450 inhibition assay, overall statement; assay type: in vitro ADME, Human; conditions: in words
[13] = Tolerability of chronic daily i.p. injection; assay type: in vivo, mice; conditions: daily i.p. injections for up to 8 weeks
Protocol: as §2

[14] = lean, non-T2D, glucose-tolerant mice, vs vehicle

CCCCC1(C2CCCC2)Cc2cc(OCCCCCC(=O)O)c(Cl)c(Cl)c2C1=O (stereo not shown) [SN-406, 6-((2-butyl-6,7-dichloro-2-cyclopentyl-1-oxo-2,3-dihydro-1H-inden-5-yl)oxy)hexanoic acid]
ICl,SWELL inhibition in R103E mutant vs WT [1]: reduced

CCCCC1(C2CCCC2)Cc2cc(OCCCC(=O)O)c(Cl)c(Cl)c2C1=O (stereo not shown) [SN-401, 4-((2-butyl-6,7-dichloro-2-cyclopentyl-1-oxo-2,3-dihydro-1H-inden-5-yl)oxy)butanoic acid]
Insulin-pAKT2 signaling ([2]; 3T3-F442A adipocytes, 1 μM 96 hours followed by washout, vs vehicle): robustly increases | Effects on insulin-AKT2-AS160 signaling in SWELL1 KO cells ([2]; SWELL1 KO 3T3-F442A adipocytes): absent | Insulin-stimulated levels of pAS160 ([2]; WT 3T3-F442A adipocytes, 10 μM 96 h): enhanced | Insulin-stimulated levels of pAKT2 ([2]; WT 3T3-F442A, 10 μM 96 h): enhanced | Glucose-stimulated insulin secretion (GSIS), serum insulin measurements [3]: significantly improved | pIC50 [4]: ~5.30 | Effect on human Kv channels [5]: no effect | SWELL1 expression in adipose tissue ([6]; HFD-fed T2D mice): 2.3 fold | SWELL1 expression in adipose tissue ([6]; T2D KKAy mice, compared to non-T2D C57/B6 and KKAa): increases | Fasting blood glucose (FG) [7]: normalized | Glucose tolerance (GTT) [7]: normalized | Insulin-tolerance (ITT) [7]: markedly improved | Hypoglycemia ([8]; control KKAa parental strain, 5 mg/kg x 4-10 days): does not cause hypoglycemia | FG [8, 14]: similar | GTT [8, 14]: similar | ITT [8, 14]: similar | SWELL1, LRRC8b, LRRC8c, LRRC8d or LRRC8e mRNA expression [9]: not associated with increases | Effect on delayed rectifier channels [10]: no effect | Effect on hERG [11]: no effect | Cytochrome p450 isoenzyme inhibition [12]: minimal | Signs of toxicity [13]: no overt signs of toxicity
